Experimental data as given in US11339171B2, “MDM2 inhibitors” (Gan & Lee Pharmaceuticals, priority 2017, dated 2022).
Several values for one entry are separate records, joined by “and”; a condition that tells them apart may be missing. Identical values can stand only once. Like-named read-outs stand apart in the source and are kept apart here.

Assays:
[1] = tested on: human osteosarcoma cell line SJSA-1; assay: Inhibition of proliferation of human osteosarcoma cell line SJSA-1 (DAPI staining, In Cell Analyzer); conditions: Homo sapiens, SJSA-1, 72 h, read-out: IC50 (nM), inhibitory activity on proliferation of human osteosarcoma cell line SJSA-1, SJSA-1, incubated 72 h
MDM2 = target: T1, MDM2 (Homo sapiens, UniProt Q00987); assay: Inhibition test of MDM2-P53 (GST-MDM2, Biotin-P53, Anti-GST-Tb, SA-XL665); assay type: binding
T1 construct: made in house
Summary of the method: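 Binding was measured by TR-FRET with GST-MDM2 at 4 nM final in PBS with 0.1% BSA, 5 mM DTT and 1 mM AEBSF. Compounds were tested as twelve-point 5-fold dilutions and incubated with the detection mix for 90 min at 25 °C with shaking before plate-reader reading and curve fitting.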

[2] = Pharmacokinetics in ICR mice after intravenous and intragastric administration; assay type: in vivo; conditions: for MRT last: read-out: MRT(0-t); for MRT inf: read-out: MRT(0-∞); for Vd: read-out: Vz
Summary of the method: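 Plasma concentrations by LC-MS/MS (range 1 to 2000 ng/ml) following single intravenous (2 mg/kg) or oral gavage (5 mg/kg) dosing of fasted male ICR mice, three per group. Vehicle 5% DMSO + 40% PEG400 + 55% (10% HP-β-CD in saline); standard PK parameters including bioavailability calculated.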

[3] = ICR mice, IV 2 mg/kg, individual animal, 2 mg/kg
[4] = ICR mice, PO 5 mg/kg, individual animal, 5 mg/kg
[5] = male, ICR, mouse, plasma, iv, 2 mg/kg, ICR mice, IV 2 mg/kg, individual animal
[6] = male, ICR, mouse, plasma, iv, 2 mg/kg, ICR mice, IV 2 mg/kg, individual animal, read-out: Cmax
[7] = male, ICR, mouse, plasma, iv, 2 mg/kg, ICR mice, IV 2 mg/kg, individual animal, read-out: Tmax
[8] = male, ICR, mouse, plasma, iv, 2 mg/kg, ICR mice, IV 2 mg/kg, individual animal, read-out: t1/2 (converted)
[9] = male, ICR, mouse, plasma, iv, 2 mg/kg, ICR mice, IV 2 mg/kg, mean of 3 animals
[10] = male, ICR, mouse, plasma, iv, 2 mg/kg, ICR mice, IV 2 mg/kg, mean of 3 animals, read-out: AUC(0-t)
[11] = male, ICR, mouse, plasma, iv, 2 mg/kg, ICR mice, IV 2 mg/kg, mean of 3 animals, read-out: Cmax
[12] = male, ICR, mouse, plasma, iv, 2 mg/kg, ICR mice, IV 2 mg/kg, mean of 3 animals, read-out: Tmax
[13] = male, ICR, mouse, plasma, iv, 2 mg/kg, ICR mice, IV 2 mg/kg, mean of 3 animals, read-out: t1/2 (converted)
[14] = male, ICR, mouse, plasma, po, 5 mg/kg, ICR mice, PO 5 mg/kg, individual animal
[15] = male, ICR, mouse, plasma, po, 5 mg/kg, ICR mice, PO 5 mg/kg, individual animal, read-out: Cmax
[16] = male, ICR, mouse, plasma, po, 5 mg/kg, ICR mice, PO 5 mg/kg, individual animal, read-out: Tmax
[17] = male, ICR, mouse, plasma, po, 5 mg/kg, ICR mice, PO 5 mg/kg, individual animal, read-out: t1/2 (converted)
[18] = male, ICR, mouse, plasma, po, 5 mg/kg, ICR mice, PO 5 mg/kg, mean of 3 animals
[19] = male, ICR, mouse, plasma, po, 5 mg/kg, ICR mice, PO 5 mg/kg, mean of 3 animals, read-out: AUC(0-t)
[20] = male, ICR, mouse, plasma, po, 5 mg/kg, ICR mice, PO 5 mg/kg, mean of 3 animals, read-out: Cmax
[21] = male, ICR, mouse, plasma, po, 5 mg/kg, ICR mice, PO 5 mg/kg, mean of 3 animals, read-out: Tmax
[22] = male, ICR, mouse, plasma, po, 5 mg/kg, ICR mice, PO 5 mg/kg, mean of 3 animals, read-out: t1/2 (converted)
[23] = male, ICR, mouse, plasma, po, 5 mg/kg, oral intragastric administration 5 mg/kg, read-out: AUC0-t
[24] = male, ICR, mouse, plasma, po, 5 mg/kg, oral intragastric administration 5 mg/kg, read-out: half-life (converted)
[25] = male, mouse, plasma, ICR mice, PO 5 mg/kg vs IV 2 mg/kg, from mean values, read-out: F* (bioavailability)

T1 sequence (Q00987 whole entry): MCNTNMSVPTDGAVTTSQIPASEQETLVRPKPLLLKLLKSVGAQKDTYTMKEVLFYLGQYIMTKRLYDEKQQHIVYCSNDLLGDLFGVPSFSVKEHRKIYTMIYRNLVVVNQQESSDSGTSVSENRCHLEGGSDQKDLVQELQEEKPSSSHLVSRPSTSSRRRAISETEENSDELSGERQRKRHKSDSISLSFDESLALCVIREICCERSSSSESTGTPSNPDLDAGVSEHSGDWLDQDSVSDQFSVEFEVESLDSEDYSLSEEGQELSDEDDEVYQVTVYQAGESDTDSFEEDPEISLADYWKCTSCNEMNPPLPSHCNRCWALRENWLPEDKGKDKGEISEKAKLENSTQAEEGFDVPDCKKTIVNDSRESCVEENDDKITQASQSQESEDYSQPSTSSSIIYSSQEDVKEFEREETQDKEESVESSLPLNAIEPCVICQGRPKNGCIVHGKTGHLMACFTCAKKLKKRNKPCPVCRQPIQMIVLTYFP

CCOc1cc(OC)c(-c2nc3c(n2C(C)C)[C@@]2(C(=O)Nc4cc(Cl)ccc42)N(c2cc(Cl)ccc2F)C3=O)cn1 [Example S-98, (S)-6-chloro-5′-(5-chloro-2-fluorophenyl)-2′-(6-ethoxy-4-methoxypyridin-3-yl)-3′-isopropyl-3′H-spiro[dihydroindole-3,4′-pyrrolo[3,4-d]imidazole]-2,6′(5′H)-dione]
IC50 [1]: 56.1 nM
IC50 (MDM2): 1.27 nM
AUC(0-t) [2, 3]: 8869.53 ng·h/mL and 11177.15 ng·h/mL
AUC(0-∞) [2, 3]: 9108.92 ng·h/mL and 12596.27 ng·h/mL
CL [2, 3]: 3.66 mL/min/kg and 2.65 mL/min/kg
Cmax [2, 3]: 3789.06 ng/mL and 3405.07 ng/mL
MRT(0-t) [2, 3]: 1.43 h and 1.82 h
MRT(0-∞) [2, 3]: 1.60 h and 2.60 h
Vz [2, 3]: 0.37 L/kg and 0.44 L/kg
t1/2 [2, 3]: 1.17 h and 1.93 h
AUC(0-t) [2, 4]: 37288.31 ng·h/mL and 18064.52 ng·h/mL and 23330.62 ng·h/mL
AUC(0-∞) [2, 4]: 19691.36 ng·h/mL and 23352.18 ng·h/mL
Cmax [2, 4]: 3420.72 ng/mL and 2943.86 ng/mL
MRT(0-t) [2, 4]: 3.17 h and 4.72 h
MRT(0-∞) [2, 4]: 3.82 h and 4.74 h
Tmax [2, 4]: 2.00 h
t1/2 [2, 4]: 2.12 h and 2.30 h
AUC(0-inf) [2, 5]: 10500 ng·h/mL
clearance [2, 5]: 3.16 mL/min/kg
AUC(0-t) ([2]; male, ICR, mouse, plasma, iv, 2 mg/kg, ICR mice, IV 2 mg/kg, individual animal, read-out: AUC(0-t)): 10000 ng·h/mL
Cmax [2, 6]: 3670 ng/mL
MRT last [2, 5]: 1.55 h
MRT inf [2, 5]: 1.86 h
Tmax [2, 7]: 0.08 h
Vd [2, 5]: 0.39 L/kg
half-life [2, 8]: 1.43 h
AUC(0-inf) [2, 9]: 10700 ng·h/mL
clearance [2, 9]: 3.16 mL/min/kg
AUC(0-t) [2, 10]: 10000 ng·h/mL
Cmax [2, 11]: 3620 ng/mL
MRT last [2, 9]: 1.6 h
MRT inf [2, 9]: 2.02 h
Tmax [2, 12]: 0.083 h
Vd [2, 9]: 0.4 L/kg
half-life [2, 13]: 1.51 h
AUC(0-inf) [2, 14]: 37300 ng·h/mL
Cmax [2, 15]: 3840 ng/mL
MRT last [2, 14]: 5.36 h
MRT inf [2, 14]: 5.38 h
Tmax [2, 16]: 4 h
half-life [2, 17]: 2.31 h
AUC(0-inf) [2, 18]: 26800 ng·h/mL
AUC(0-t) [2, 19]: 26200 ng·h/mL
Cmax [2, 20]: 3400 ng/mL
MRT last [2, 18]: 4.41 h
MRT inf [2, 18]: 4.65 h
Tmax [2, 21]: 2.67 h
half-life [2, 22]: 2.24 h
AUC(0-t) [2, 23]: 26200 ng·h/mL
half-life [2, 24]: 2.24 h
bioavailability ([2]; male, ICR, mouse, plasma, oral intragastric administration 5 mg/kg, read-out: bioavailability): 105%
bioavailability [2, 25]: 105%

COc1cc(C2CC2)ncc1-c1nc2c(n1C(C)C)[C@@]1(C(=O)Nc3cc(Cl)ccc31)N(c1cc(Cl)ccc1C)C2=O [Example S-103, (S)-6-chloro-5′-(5-chloro-2-methylphenyl)-2′-(6-cyclopropyl-4-methoxypyridin-3-yl)-3′-isopropyl-3′H-spiro[dihydroindole-3,4′-pyrrolo[3,4-d]imidazole]-2,6′(5′H)-dione]
IC50 [1]: 40.5 nM
IC50 (MDM2): 1.81 nM
AUC(0-t) [2, 3]: 10460.62 ng·h/mL and 4009.87 ng·h/mL and 5508.40 ng·h/mL
AUC(0-∞) [2, 3]: 10483.52 ng·h/mL and 5119.53 ng·h/mL and 8771.81 ng·h/mL
CL [2, 3]: 3.18 mL/min/kg and 6.51 mL/min/kg and 3.80 mL/min/kg
Cmax [2, 3]: 1045.99 ng/mL and 1333.49 ng/mL
MRT(0-t) [2, 3]: 4.16 h and 2.05 h and 2.33 h
MRT(0-∞) [2, 3]: 3.75 h and 5.91 h
Vz [2, 3]: 1.53 L/kg and 1.35 L/kg
t1/2 [2, 3]: 2.71 h and 4.11 h
AUC(0-t) [2, 4]: 13078.28 ng·h/mL and 19872.62 ng·h/mL
AUC(0-∞) [2, 4]: 14231.55 ng·h/mL and 19888.79 ng·h/mL
Cmax [2, 4]: 2344.01 ng/mL and 3008.06 ng/mL
MRT(0-t) [2, 4]: 3.36 h and 4.45 h
MRT(0-∞) [2, 4]: 3.93 h and 4.47 h
Tmax [2, 4]: 4.00 h
t1/2 [2, 4]: 1.72 h and 2.23 h
Cmax [2, 6]: 1330 ng/mL
MRT inf [2, 5]: 4.21 h
Tmax [2, 7]: 1 h
Vd [2, 5]: 0.79 L/kg
half-life [2, 8]: 2.89 h
AUC(0-inf) [2, 9]: 8120 ng·h/mL
clearance [2, 9]: 4.5 mL/min/kg
AUC(0-t) [2, 10]: 6660 ng·h/mL
Cmax [2, 11]: 1240 ng/mL
MRT last [2, 9]: 2.85 h
MRT inf [2, 9]: 4.62 h
Tmax [2, 12]: 1 h
Vd [2, 9]: 1.22 L/kg
half-life [2, 13]: 3.24 h
AUC(0-inf) [2, 14]: 11700 ng·h/mL
AUC(0-t) ([2]; male, ICR, mouse, plasma, po, 5 mg/kg, ICR mice, PO 5 mg/kg, individual animal, read-out: AUC(0-t)): 11000 ng·h/mL
Cmax [2, 15]: 2380 ng/mL
MRT last [2, 14]: 3.08 h
MRT inf [2, 14]: 3.54 h
Tmax [2, 16]: 2 h
half-life [2, 17]: 1.84 h
AUC(0-inf) [2, 18]: 15300 ng·h/mL
AUC(0-t) [2, 19]: 14600 ng·h/mL
Cmax [2, 20]: 2580 ng/mL
MRT last [2, 18]: 3.63 h
MRT inf [2, 18]: 3.98 h
Tmax [2, 21]: 3.33 h
half-life [2, 22]: 1.93 h
AUC(0-t) [2, 23]: 14600 ng·h/mL
half-life [2, 24]: 1.93 h
bioavailability [2, 25]: 87.9%
